Measured values reported in patent US11739074B2, “Ras inhibitors” (Revolution Medicines, Inc., priority 2019, dated 2023).
Like-named read-outs stand apart in the source and are kept apart here.

How the values were obtained:
AsPC-1 (K-Ras G12D) [1] = experiment: CellTiter-Glo cell viability assay, AsPC-1; type: cell-based; settings: Homo sapiens, ASPC1, 120 h
Procedure: Determination of Cell Viability in RAS Mutant Cancer Cell Lines
Protocol: CellTiter-Glo® Cell Viability Assay
Note—The following protocol describes a procedure for monitoring cell viability of K-Ras mutant cancer cell lines in response to a compound of the invention. Other RAS isoforms may be employed, though the number of cells to be seeded will vary based on cell line used.
Test compounds (132.5 nL) were directly dispensed into the assay plates containing cells. […] On day 5, assay plates and their contents were equilibrated to room temperature for approximately 30 minutes. […] Luminescence was measured using the PerkinElmer Enspire. Data were normalized by the following: (Sample signal/Avg. DMSO)*100. The data were fit using a four-parameter logistic fit.

AsPC-1 (K-Ras G12D) [2] = experiment: Potency assay: pERK in AsPC-1 cells; type: cell-based; settings: Homo sapiens
[3] = AsPC-1, K-Ras G12D, 5-day treatment, read-out: AsPC-1 Cell Viability IC50
[4] = ASPC1, AsPC-1 cells, K-Ras G12D, read-out: pERK EC50 (AsPC-1 KRAS G12D)
[5] = read-out: AsPC-1 Cell Viability IC50, AsPC-1, K-Ras G12D, 5-day treatment
[6] = ASPC1, read-out: pERK EC50 (AsPC-1 KRAS G12D)

## CCn1c(-c2cccnc2[C@H](C)OC)c2c3cc(ccc31)-c1cc(O)cc(c1)C[C@H](NC(=O)[C@H](C(C)C)N(C)C(=O)C1CN(S(=O)(=O)[C@@H]3CN3C)C1)C(=O)N1CCC[C@H](N1)C(=O)OCC(C)(C)C2 (single isomer, unassigned) [Compound 118]
AsPC-1 (K-Ras G12D) [1]; [3]
  IC50: > 10 µM
AsPC-1 (K-Ras G12D) [2]; [4]
  EC50: < 5 µM

## CCn1c(-c2cccnc2[C@H](C)OC)c2c3cc(ccc31)-c1cc(O)cc(c1)C[C@H](NC(=O)[C@H](C(C)C)N(C)C(=O)c1ccc(NC(=O)[C@@H]3CN3)cn1)C(=O)N1CCC[C@H](N1)C(=O)OCC(C)(C)C2 [Compound 187]
AsPC-1 (K-Ras G12D) [1]; [3]
  IC50: 1 to 10 µM
AsPC-1 (K-Ras G12D) [2]; [4]
  EC50: < 5 µM

## CCn1c(-c2cccnc2[C@H](C)OC)c2c3cc(ccc31)-c1cc(O)cc(c1)C[C@H](NC(=O)[C@H](C(C)C)N(C)C(=O)C1CN(S(=O)(=O)[C@H]3CN3C)C1)C(=O)N1CCC[C@H](N1)C(=O)OCC(C)(C)C2 (single isomer, unassigned) [Compound 117]
AsPC-1 (K-Ras G12D) [1]; [3]
  IC50: 1 to 10 µM
AsPC-1 (K-Ras G12D) [2]; [4]
  EC50: < 5 µM

## CCn1c(-c2cnccc2COC)c2c3cc(ccc31)-c1cc(O)cc(c1)C[C@H](NC(=O)[C@H](C(C)C)N(C)C(=O)CN(C)C(=O)[C@@H]1N[C@@H]1C)C(=O)N1CCC[C@H](N1)C(=O)OCC(C)(C)C2 [Compound 105]
AsPC-1 (K-Ras G12D) [1]; [5]
  IC50: 1 to 10 µM
AsPC-1 (K-Ras G12D) [2]; [6]
  EC50: < 5 µM

## CCn1c(-c2cccnc2[C@H](C)OC)c2c3cc(ccc31)-c1cc(O)cc(c1)C[C@H](NC(=O)[C@H](C(C)C)N(C)C(=O)C1CCN(C(=O)[C@@H]3CN3)CC1)C(=O)N1CCC[C@H](N1)C(=O)OCC(C)(C)C2 [Compound 89]
AsPC-1 (K-Ras G12D) [1]; [3]
  IC50: > 10 µM
AsPC-1 (K-Ras G12D) [2]; [4]
  EC50: < 5 µM

## CCn1c(-c2cccnc2[C@H](C)OC)c2c3cc(ccc31)-c1cc(O)cc(c1)C[C@H](NC(=O)[C@H](C1CCCC1)N(C)C(=O)CN(C)C(=O)[C@@H]1N[C@@H]1C1(C#N)CC1)C(=O)N1CCC[C@H](N1)C(=O)OCC(C)(C)C2 (single isomer, unassigned) [Compound 308]
AsPC-1 (K-Ras G12D) [1]; [3]
  IC50: 1 to 10 µM
AsPC-1 (K-Ras G12D) [2]; [4]
  EC50: < 5 µM

## CCn1c(-c2cccnc2[C@H](C)OC)c2c3cc(ccc31)-c1cc(O)cc(c1)C[C@H](NC(=O)[C@H](C(C)C)N(C)C(=O)[C@@H](C)N(C)C(=O)[C@H]1CN1)C(=O)N1CCC[C@H](N1)C(=O)OCC(C)(C)C2 [Compound 114]
AsPC-1 (K-Ras G12D) [1]; [5]
  IC50: 1 to 10 µM
AsPC-1 (K-Ras G12D) [2]; [6]
  EC50: < 5 µM

## CCn1c(-c2cccnc2[C@H](C)OC)c2c3cc(ccc31)-c1cc(O)cc(c1)C[C@H](NC(=O)[C@H](C(C)C)N(C)C(=O)N1CC[C@H](N(C)C(=O)[C@@H]3CN3)C1)C(=O)N1CCC[C@H](N1)C(=O)OCC(C)(C)C2 [Compound 255]
AsPC-1 (K-Ras G12D) [1]; [3]
  IC50: 1 to 10 µM
AsPC-1 (K-Ras G12D) [2]; [4]
  EC50: < 5 µM

## CCn1c(-c2cccnc2[C@H](C)OC)c2c3cc(ccc31)-c1cc(O)cc(c1)C[C@H](NC(=O)[C@H](C(C)C)N1CC[C@@H](NC(=O)[C@@H]3CN3)C1=O)C(=O)N1CCC[C@H](N1)C(=O)OCC(C)(C)C2 [Compound 129]
AsPC-1 (K-Ras G12D) [1]; [3]
  IC50: 1 to 10 µM
AsPC-1 (K-Ras G12D) [2]; [4]
  EC50: < 5 µM

## CCn1c(-c2cccnc2[C@H](C)OC)c2c3cc(ccc31)-c1cc(O)cc(c1)C[C@H](NC(=O)[C@H](C(C)C)N(C)C(=O)CN(C)C(=O)[C@@H]1CN1CCCN1CCCC1=O)C(=O)N1CCC[C@H](N1)C(=O)OCC(C)(C)C2 (stereo partly shown) [Compound 269]
AsPC-1 (K-Ras G12D) [1]; [5]
  IC50: 1 to 10 µM
AsPC-1 (K-Ras G12D) [2]; [6]
  EC50: < 5 µM

## CCn1c(-c2cccnc2[C@H](C)OC)c2c3cc(ccc31)-c1cc(O)cc(c1)C[C@H](NC(=O)[C@H](C(C)C)N(C)C(=O)CN(C)C(=O)[C@H]1CN1CCCN1CCCC1=O)C(=O)N1CCC[C@H](N1)C(=O)OCC(C)(C)C2 (stereo partly drawn) [Example 268, (2R)—N-(2-(((2S)-1-(((6^3S,4S)-1^1-ethyl-2^5-hydroxy-1^2-(2-((S)-1-methoxyethyl)pyridin-3-yl)-10,10-dimethyl-5,7-dioxo-6^1,6^2,6^3,6^4,6^5,6^6-hexahydro-1^1H-8-oxa-1(5,3)-indola-6(1,3)-pyridazina-2(1,3)-benzenacycloundecaphane-4-yl)amino)-3-methyl-1-oxobutan-2-yl)(methyl)amino)-2-oxoethyl)-N-methyl-1-(3-(2-oxopyrrolidin-1-yl)propyl)aziridine-2-carboxamide]
AsPC-1 (K-Ras G12D) [1]; [5]
  IC50: 1 to 10 µM
AsPC-1 (K-Ras G12D) [2]; [6]
  EC50: < 5 µM

## CCn1c(-c2cccnc2[C@H](C)OC)c2c3cc(ccc31)-c1cc(O)cc(c1)C[C@H](NC(=O)[C@H](C(C)C)N(C)C(=O)CC1CN(C(=O)[C@@H]3CN3)C1)C(=O)N1CCC[C@H](N1)C(=O)OCC(C)(C)C2 [Compound 178]
AsPC-1 (K-Ras G12D) [1]; [3]
  IC50: > 10 µM
AsPC-1 (K-Ras G12D) [2]; [4]
  EC50: < 5 µM

## CCn1c(-c2cccnc2[C@H](C)OC)c2c3cc(ccc31)-c1cc(O)cc(c1)C[C@H](NC(=O)[C@H](C(C)C)N1CC[C@@]3(CCN(C(=O)[C@H]4CN4)C3)C1=O)C(=O)N1CCC[C@H](N1)C(=O)OCC(C)(C)C2 [Compound 149]
AsPC-1 (K-Ras G12D) [1]; [3]
  IC50: 1 to 10 µM
AsPC-1 (K-Ras G12D) [2]; [4]
  EC50: < 5 µM

## CCn1c(-c2cccnc2[C@H](C)OC)c2c3cc(ccc31)-c1csc(n1)C[C@H](NC(=O)[C@H](C(C)C)N(C)C(=O)N(C)C1CN(C(=O)[C@H]3CN3)C1)C(=O)N1CCC[C@H](N1)C(=O)OCC(C)(C)C2 [Compound 220]
AsPC-1 (K-Ras G12D) [1]; [3]
  IC50: 1 to 10 µM
AsPC-1 (K-Ras G12D) [2]; [4]
  EC50: < 5 µM

## CCn1c(-c2cccnc2[C@H](C)OC)c2c3cc(ccc31)-c1cc(O)cc(c1)C[C@H](NC(=O)[C@H](C1CCCC1)N(C)C(=O)CN(C)C(=O)[C@@H]1N[C@@H]1C1(F)CC1)C(=O)N1CCC[C@H](N1)C(=O)OCC(C)(C)C2 [Compound 314]
AsPC-1 (K-Ras G12D) [1]; [3]
  IC50: 0.1 to 1 µM
AsPC-1 (K-Ras G12D) [2]; [4]
  EC50: < 5 µM

## CCn1c(-c2cccnc2[C@H](C)OC)c2c3cc(ccc31)-c1cc(O)cc(c1)C[C@H](NC(=O)[C@H](C(C)C)N(C)C(=O)[C@H]1C[C@H]3CC[C@@H](C1)N3C(=O)[C@@H]1CN1)C(=O)N1CCC[C@H](N1)C(=O)OCC(C)(C)C2 [Compound 246]
AsPC-1 (K-Ras G12D) [1]; [3]
  IC50: 1 to 10 µM
AsPC-1 (K-Ras G12D) [2]; [4]
  EC50: < 5 µM

## CCn1c(-c2cccnc2[C@H](C)OC)c2c3cc(ccc31)-c1cc(O)cc(c1)C[C@H](NC(=O)[C@H](C(C)C)N(C)C(=O)N1CCN(C(=O)[C@@H]3CN3)CC1=O)C(=O)N1CCC[C@H](N1)C(=O)OCC(C)(C)C2 [Compound 205]
AsPC-1 (K-Ras G12D) [1]; [3]
  IC50: > 10 µM
AsPC-1 (K-Ras G12D) [2]; [4]
  EC50: < 5 µM

## CCn1c(-c2cccnc2[C@H](C)OC)c2c3cc(ccc31)-c1cc(O)cc(c1)C[C@H](NC(=O)[C@H](C(C)C)N(C)C(=O)[C@H]1CN1)C(=O)N1CCC[C@H](N1)C(=O)OCC(C)(C)C2 [Compound 112]
AsPC-1 (K-Ras G12D) [1]; [3]
  IC50: 1 to 10 µM
AsPC-1 (K-Ras G12D) [2]; [4]
  EC50: < 5 µM

## CCn1c(-c2cccnc2[C@H](C)OC)c2c3cc(ccc31)-c1cc(O)cc(c1)C[C@H](NC(=O)[C@H](C(C)C)N(C)C(=O)[C@H]1CCCN1C(=O)[C@@H]1CN1)C(=O)N1CCC[C@H](N1)C(=O)OCC(C)(C)C2 [Compound 151]
AsPC-1 (K-Ras G12D) [1]; [5]
  IC50: 1 to 10 µM
AsPC-1 (K-Ras G12D) [2]; [6]
  EC50: < 5 µM

## CCn1c(-c2cccnc2[C@H](C)OC)c2c3cc(ccc31)-c1cc(O)cc(c1)C[C@H](NC(=O)[C@H](C(C)C)N(C)C(=O)[C@]1(F)CCN(C(=O)[C@H]3CN3)C1)C(=O)N1CCC[C@H](N1)C(=O)OCC(C)(C)C2 [Compound 311]
AsPC-1 (K-Ras G12D) [1]; [3]
  IC50: 0.1 to 1 µM
AsPC-1 (K-Ras G12D) [2]; [4]
  EC50: < 5 µM

## CCn1c(-c2cccnc2[C@H](C)OC)c2c3cc(ccc31)-c1cc(O)cc(c1)C[C@H](NC(=O)[C@@H](C(C)C)N(C)C(=O)[C@@]1(C)CCCN1C(=O)[C@@H]1CN1)C(=O)N1CCC[C@H](N1)C(=O)OCC(C)(C)C2 [Compound 242]
AsPC-1 (K-Ras G12D) [1]; [3]
  IC50: 1 to 10 µM
AsPC-1 (K-Ras G12D) [2]; [4]
  EC50: < 5 µM

## CCn1c(-c2cnccc2COC)c2c3cc(ccc31)-c1cc(O)cc(c1)C[C@H](NC(=O)[C@H](C(C)C)N(C)C(=O)CN(C)C(=O)[C@H]1N[C@@H]1c1ccc(OC)cc1)C(=O)N1CCC[C@H](N1)C(=O)OCC(C)(C)C2 [Compound 97]
AsPC-1 (K-Ras G12D) [1]; [5]
  IC50: 1 to 10 µM
AsPC-1 (K-Ras G12D) [2]; [6]
  EC50: < 5 µM

## CCn1c(-c2cccnc2[C@H](C)OC)c2c3cc(ccc31)-c1cc(O)cc(c1)C[C@H](NC(=O)[C@H](C(C)C)N(C)C(=O)C13CC(CN1C(=O)[C@@H]1CN1)C3)C(=O)N1CCC[C@H](N1)C(=O)OCC(C)(C)C2 [Compound 163]
AsPC-1 (K-Ras G12D) [1]; [3]
  IC50: 1 to 10 µM
AsPC-1 (K-Ras G12D) [2]; [4]
  EC50: < 5 µM

## CCn1c(-c2cccnc2[C@H](C)OC)c2c3cc(ccc31)-c1cc(O)cc(c1)C[C@H](NC(=O)[C@H](C(C)C)N(C)C(=O)c1ccc(NC(=O)[C@H]3CN3)cn1)C(=O)N1CCC[C@H](N1)C(=O)OCC(C)(C)C2 [Compound 127]
AsPC-1 (K-Ras G12D) [1]; [3]
  IC50: > 10 µM
AsPC-1 (K-Ras G12D) [2]; [4]
  EC50: < 5 µM

## CCn1c(-c2cccnc2[C@H](C)OC)c2c3cc(ccc31)-c1cc(O)cc(c1)C[C@H](NC(=O)[C@H](C(C)C)N(C)C(=O)CNC(=O)[C@@H]1CN1)C(=O)N1CCC[C@H](N1)C(=O)OCC(C)(C)C2 [Compound 147]
AsPC-1 (K-Ras G12D) [1]; [5]
  IC50: 1 to 10 µM
AsPC-1 (K-Ras G12D) [2]; [6]
  EC50: < 5 µM

## CCn1c(-c2cccnc2[C@H](C)OC)c2c3cc(ccc31)-c1cc(O)cc(c1)C[C@H](NC(=O)[C@H](C(C)C)N(C)C(=O)CN(C)S(=O)(=O)[C@@H]1CN1C)C(=O)N1CCC[C@H](N1)C(=O)OCC(C)(C)C2 (single isomer, unassigned) [Compound 92]
AsPC-1 (K-Ras G12D) [1]; [3]
  IC50: 1 to 10 µM
AsPC-1 (K-Ras G12D) [2]; [4]
  EC50: < 5 µM
